Data published in US11053204B2, “Pyrimidinyloxy benzene derivatives as herbicides” (FMC Corporation, priority 2015, dated 2021).

What was measured:
Type in all cases: in vivo
[1] = test system: galium (catchweed bedstraw, Galium aparine); assay: Test C preemergence, plant response rating
[2] = test system: johnsongrass (Sorghum halepense); assay: Test C preemergence, plant response rating
[3] = test system: pigweed, palmer (palmer pigweed, Amaranthus palmeri); assay: Test C preemergence, plant response rating
kochia (Kochia scoparia) = assay: Test C preemergence, plant response rating
[4] = test system: surinam grass (Brachiaria decumbens); assay: Test C preemergence, plant response rating
[5] = test system: wild poinsettia (Euphorbia heterophylla); assay: Test C preemergence, plant response rating
[6] = test system: oat, wild (wild oat Avena fatua); assay: Test C preemergence, plant response rating
[7] = test system: Canada thistle (Cirsium arvense); assay: Test C postemergence, plant response rating; conditions: for Canada Thistle plant response rating: scale 0 to 100 (0 no effect, 100 complete control)
Summary of the method: (§1)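 Preemergence: seeds sown in loam–sand blend or silt loam and sprayed with test chemicals in a non-phytotoxic surfactant-containing solvent. Postemergence: potted plants at 2–18 cm (1–4-leaf stage) sprayed with the same formulation. After 13–15 d in greenhouse, visual rating versus controls on 0 (no effect) to 100 (complete control) scale.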

[8] = test system: buckwheat, wild (wild buckwheat, Polygonum convolvulus); assay: Test C postemergence, plant response rating; conditions: for Buckwheat, Wild plant response rating: scale 0 to 100 (0 no effect, 100 complete control)
Summary of the method: as §1

[9] = test system: field poppy (Papaver rhoeas); assay: Test C postemergence, plant response rating; conditions: for Field Poppy plant response rating: scale 0 to 100 (0 no effect, 100 complete control)
Summary of the method: as §1

[10] = test system: field violet (Viola arvensis); assay: Test C postemergence, plant response rating; conditions: for Field Violet plant response rating: scale 0 to 100 (0 no effect, 100 complete control)
Summary of the method: as §1

[11] = test system: geranium, cutleaf (cutleaf geranium, Geranium dissectum); assay: Test C postemergence, plant response rating; conditions: for Geranium, Cutleaf plant response rating: scale 0 to 100 (0 no effect, 100 complete control)
Summary of the method: as §1

[12] = test system: johnsongrass (Sorghum halepense); assay: Test C postemergence, plant response rating; conditions: for Johnsongrass plant response rating: scale 0 to 100 (0 no effect, 100 complete control)
Summary of the method: as §1

[13] = test system: nightshade (eastern black nightshade, Solanum ptycanthum); assay: Test C postemergence, plant response rating; conditions: for Nightshade plant response rating: scale 0 to 100 (0 no effect, 100 complete control)
Summary of the method: as §1

[14] = test system: pigweed, palmer (palmer pigweed, Amaranthus palmeri); assay: Test C postemergence, plant response rating; conditions: for Pigweed, Palmer plant response rating: scale 0 to 100 (0 no effect, 100 complete control)
Summary of the method: as §1

[15] = test system: speedwell (bird's-eye speedwell, Veronica persica); assay: Test C postemergence, plant response rating; conditions: for Speedwell plant response rating: scale 0 to 100 (0 no effect, 100 complete control)
Summary of the method: as §1

[16] = test system: surinam grass (Brachiaria decumbens); assay: Test C postemergence, plant response rating
Summary of the method: as §1

[17] = test system: wild mustard (Sinapis arvensis); assay: Test C postemergence, plant response rating; conditions: for Mustard, Wild plant response rating: scale 0 to 100 (0 no effect, 100 complete control)
Summary of the method: as §1

[18] = test system: wild poinsettia (Euphorbia heterophylla); assay: Test C postemergence, plant response rating; conditions: for Poinsettia, Wild plant response rating: scale 0 to 100 (0 no effect, 100 complete control)
Summary of the method: as §1

[19] = test system: windgrass (Apera spica-venti); assay: Test C postemergence, plant response rating
Summary of the method: as §1

[20] = 125 g ai/ha, scale 0 to 100 (0 no effect, 100 complete control)

O=C(CCC(F)(F)F)c1c(Cl)cccc1Oc1ncc(Cl)cn1 [Compound 107, 1-[2-chloro-6-[(5-chloro-2-pyrimidinyl)oxy]phenyl]-4,4,4-trifluoro-1-butanone]
Plant response rating, Galium ([1]; 31 g ai/ha, scale 0 to 100): 60
Plant response rating, Galium ([1]; 62 g ai/ha, scale 0 to 100): 90
Plant response rating, Galium ([1]; 125 g ai/ha, scale of 0 to 100): 95
Plant response rating, Johnsongrass ([2]; 31 g ai/ha, scale 0 to 100): 30
Plant response rating, Johnsongrass ([2]; 62 g ai/ha, scale 0 to 100): 70
Plant response rating, Johnsongrass ([2]; 125 g ai/ha, scale of 0 to 100): 80
Plant response rating, Pigweed, Palmer ([3]; 31 g ai/ha, scale 0 to 100): 100
Plant response rating, Pigweed, Palmer ([3]; 62 g ai/ha, scale 0 to 100): 100
Plant response rating, Pigweed, Palmer ([3]; 125 g ai/ha, scale of 0 to 100): 100
Plant response rating, Kochia (kochia (Kochia scoparia); 31 g ai/ha, scale 0 to 100): 100
Plant response rating, Kochia (kochia (Kochia scoparia); 62 g ai/ha, scale 0 to 100): 100
Plant response rating, Kochia (kochia (Kochia scoparia); 125 g ai/ha, scale of 0 to 100): 100
Plant response rating, Surinam Grass ([4]; 31 g ai/ha, scale 0 to 100): 60
Plant response rating, Surinam Grass ([4]; 62 g ai/ha, scale 0 to 100): 98
Plant response rating, Surinam Grass ([4]; 125 g ai/ha, scale of 0 to 100): 98
Plant response rating, Poinsettia, Wild ([5]; 31 g ai/ha, scale 0 to 100): 10
Plant response rating, Poinsettia, Wild ([5]; 62 g ai/ha, scale 0 to 100): 40
Plant response rating, Poinsettia, Wild ([5]; 125 g ai/ha, scale of 0 to 100): 70
Plant response rating, Oat, Wild ([6]; 31 g ai/ha, scale 0 to 100): 5
Plant response rating, Oat, Wild ([6]; 62 g ai/ha, scale 0 to 100): 30
Plant response rating, Oat, Wild ([6]; 125 g ai/ha, scale of 0 to 100): 65
Plant response rating, Canada Thistle ([7]; 16 g ai/ha, scale of 0 to 100): 80
Plant response rating, Canada Thistle ([7]; 31 g ai/ha, scale 0 to 100): 85
Canada Thistle plant response rating ([7]; 62 g ai/ha): 90
Canada Thistle plant response rating ([7]; 125 g ai/ha): 90
Plant response rating, Buckwheat, Wild ([8]; 16 g ai/ha, scale of 0 to 100): 45
Plant response rating, Buckwheat, Wild ([8]; 31 g ai/ha, scale 0 to 100): 75
Buckwheat, Wild plant response rating ([8]; 62 g ai/ha): 75
Buckwheat, Wild plant response rating ([8]; 125 g ai/ha): 100
Plant response rating, Field Poppy ([9]; 16 g ai/ha, scale of 0 to 100): 80
Plant response rating, Field Poppy ([9]; 31 g ai/ha, scale 0 to 100): 98
Field Poppy plant response rating ([9]; 62 g ai/ha): 98
Field Poppy plant response rating ([9]; 125 g ai/ha): 100
Plant response rating, Field Violet ([10]; 16 g ai/ha, scale of 0 to 100): 95
Plant response rating, Field Violet ([10]; 31 g ai/ha, scale 0 to 100): 98
Field Violet plant response rating ([10]; 62 g ai/ha): 98
Field Violet plant response rating ([10]; 125 g ai/ha): 100
Plant response rating, Geranium, Cutleaf ([11]; 16 g ai/ha, scale of 0 to 100): 25
Plant response rating, Geranium, Cutleaf ([11]; 31 g ai/ha, scale 0 to 100): 35
Geranium, Cutleaf plant response rating ([11]; 62 g ai/ha): 60
Geranium, Cutleaf plant response rating ([11]; 125 g ai/ha): 75
Plant response rating, Johnsongrass ([12]; 16 g ai/ha, scale of 0 to 100): 20
Plant response rating, Johnsongrass ([12]; 31 g ai/ha, scale 0 to 100): 10
Johnsongrass plant response rating ([12]; 62 g ai/ha): 35
Johnsongrass plant response rating ([12]; 125 g ai/ha): 98
Plant response rating, Nightshade ([13]; 16 g ai/ha, scale of 0 to 100): 75
Plant response rating, Nightshade ([13]; 31 g ai/ha, scale 0 to 100): 90
Nightshade plant response rating ([13]; 62 g ai/ha): 98
Nightshade plant response rating ([13]; 125 g ai/ha): 100
Plant response rating, Pigweed, Palmer ([14]; 16 g ai/ha, scale of 0 to 100): 90
Plant response rating, Pigweed, Palmer ([14]; 31 g ai/ha, scale 0 to 100): 95
Pigweed, Palmer plant response rating ([14]; 62 g ai/ha): 100
Pigweed, Palmer plant response rating ([14]; 125 g ai/ha): 100
Plant response rating, Speedwell ([15]; 16 g ai/ha, scale of 0 to 100): 100
Plant response rating, Speedwell ([15]; 31 g ai/ha, scale 0 to 100): 100
Speedwell plant response rating ([15]; 62 g ai/ha): 100
Speedwell plant response rating ([15]; 125 g ai/ha): 100
Plant response rating, Surinam Grass ([16]; 16 g ai/ha, scale of 0 to 100): 10
Plant response rating, Surinam Grass ([16]; 31 g ai/ha, scale 0 to 100): 25
Surinam Grass plant response rating [16, 20]: 35
Plant response rating, Mustard, Wild ([17]; 16 g ai/ha, scale of 0 to 100): 85
Plant response rating, Mustard, Wild ([17]; 31 g ai/ha, scale 0 to 100): 90
Mustard, Wild plant response rating ([17]; 62 g ai/ha): 95
Mustard, Wild plant response rating ([17]; 125 g ai/ha): 100
Plant response rating, Poinsettia, Wild ([18]; 16 g ai/ha, scale of 0 to 100): 70
Plant response rating, Poinsettia, Wild ([18]; 31 g ai/ha, scale 0 to 100): 75
Poinsettia, Wild plant response rating ([18]; 62 g ai/ha): 90
Poinsettia, Wild plant response rating ([18]; 125 g ai/ha): 90
Plant response rating, Windgrass ([19]; 16 g ai/ha, scale of 0 to 100): 5
Plant response rating, Windgrass ([19]; 31 g ai/ha, scale 0 to 100): 15
Windgrass plant response rating [19, 20]: 50
